Positions of bridges follow the written chain, without caps; N, C: chain ends. Residues, ends and D or L forms follow the SMILES beside them.
Test: Pharmacokinetics, 3-hour intravenous infusion of linear (non-acylated) polypeptides
Design: species or system Sprague-Dawley rats
Settings: rat, in vivo, 0.1 mg/kg; linear polypeptides; 3-hour intravenous infusion, 0.100 mg/kg, male Sprague-Dawley rats; read-out: CL
Description: Peptides were dissolved in sterile saline and administered as a 3-hour intravenous infusion to non-fasted male Sprague-Dawley rats (n=3 per group) via femoral vein cannula at a final dose of 0.100 mg/kg. […] Blood samples (approximately 250 μL) were collected for pharmacokinetic analysis via a jugular vein cannula at 0.25, 0.5, 1, 2, 3, 3.17, 3.33, 3.5, 4, 4.5, 5, and 6 hr post-start of infusion (long method) or at 1, 1.5, 2, 2.5, and 3 hr post-start of infusion (steady-state screening method). All samples were collected into microtainer tubes containing K2EDTA as anticoagulant and 25 μL of a protease inhibitor cocktail. Plasma was prepared by centrifugation and stored at −80° C. until analysis. The results of this analysis are shown in Table 9 and few exemplars in FIGS. 3a-3b.
A 60 μL aliquot of each plasma sample was placed into to a 96-well plate. To each well was added 6 μL of 0.5% Tween-20. Plates were then vortexed mixed for 10 minutes at 1200 rpm before 180 μL of 0.1% TFA in 2:1 ethanol:acetonitrile containing an appropriate internal standard was added to each well. Plates were vortex mixed for 5 min at 1300 rpm, and then centrifuged for 10 min at 2844×g. Supernatants (180 μL) were placed into a clean 96-well plate and evaporated under a nitrogen stream at 45° C. Residues were reconstituted in 80 μL of 20% acetonitrile (aq) containing 0.1% formic acid.
A […] aliquot of each plasma sample was diluted with […] of 10 mM ammonium acetate (pH 6.8) containing an appropriate internal standard and loaded onto an Oasis WCX microElution plate (Waters Corporation, Milford, MA) that had been pre-conditioned with […] of methanol and […] of deionized water. Samples were washed with […] of 5% ammonium hydroxide (aq) followed by […] of 20% acetonitrile in water. The analyte was eluted with […] of 5% formic acid in 75:25 acetonitrile:water. The eluent was dried under a nitrogen stream. Residues were reconstituted in 80 μL of 20% acetonitrile (aq) containing 0.1% formic acid.
All calibration standards were prepared in control rat plasma containing K2EDTA and protease inhibitor cocktail.
Samples and standards were analyzed by TurbolonSpray™ UPLC-MS/MS using a system consisting of a CTC HTS PAL auto-injector (Leap, Carrboro, NC), an Agilent Infinity 1290 system with column oven (Palo Alto, CA), a Valco switching valve (Houston, TX), and either an AB Sciex API 5600 TripleTOF™ or Sciex API 4000QTrap mass spectrometer (Framingham, MA). Samples were injected onto a 2.1×50 mm reverse phase C18 analytical column, typically a Waters CORTECS UPLC C18+, 1.6 μm (Waters Corporation, Milford, MA) or similar. […] Initial conditions consisted of 90% A and 10% B. The organic component was increased to 95% B over a period of 3-4 minutes, depending on the peptide. Typical flow rates were 600 μL/min. The column temperature was held constant at 40 or 50° C. Peptides were quantified by monitoring one or more product ions produced from a multiply charged parent ion.

| SMILES | clearance [mL/min/kg] |
| --- | --- |
| CC[C@H](C)[C@H](NC(=O)[C@@H]1CCCN1C(=O)CNC(=O)[C@H](Cc1ccccc1)NC(=O)[C@H](CC(N)=O)NC(=O)[C@H](CC(N)=O)NC(=O)[C@H](CO)NC(=O)[C@H](CO)NC(=O)[C@H](Cc1c[nH]cn1)NC(=O)[C@@H](NC(=O)[C@H](CC(C)C)NC(=O)[C@H](CCC(=O)O)NC(=O)[C@H](CC(N)=O)NC(=O)[C@H](C)NC(=O)[C@H](CC(C)C)NC(=O)[C@H](CCCNC(=N)N)NC(=O)[C@H](CCC(N)=O)NC(=O)[C@@H](NC(=O)[C@H](C)NC(=O)[C@@H]1CSSC[C@H](NC(=O)[C@@H](N)CO)C(=O)N[C@@H](CC(N)=O)C(=O)N[C@@H]([C@@H](C)O)C(=O)N[C@@H](CO)C(=O)N[C@@H]([C@@H](C)O)C(=O)N1)[C@@H](C)O)C(C)C)C(=O)N[C@@H](CC(C)C)C(=O)N1CCC[C@H]1C(=O)N1CCC[C@H]1C(=O)N[C@H](C(=O)N[C@@H](CC(N)=O)C(=O)N[C@H](C(=O)NCC(=O)N[C@@H](CO)C(=O)N[C@@H](CC(N)=O)C(=O)N[C@H](C(=O)N[C@@H](Cc1ccc(O)cc1)C(N)=O)[C@@H](C)O)C(C)C)[C@@H](C)O [Compound A44] (H-SCNTSTCATQRLANELVHSSNNFGPILPPTNVGSNTY-NH2; disulfide 2-7) | 14.2 |

Same assay, conditions: rat, in vivo, iv, 0.1 mg/kg

| SMILES | clearance [mL/min/kg] |
| --- | --- |
| CC[C@H](C)[C@H](NC(=O)[C@@H]1CCCN1C(=O)CNC(=O)[C@H](Cc1ccccc1)NC(=O)[C@H](CC(N)=O)NC(=O)[C@H](CC(N)=O)NC(=O)[C@H](CO)NC(=O)[C@H](CO)NC(=O)[C@H](CCCCN)NC(=O)[C@H](Cc1c[nH]cn1)NC(=O)[C@H](CC(C)C)NC(=O)[C@H](CCC(=O)O)NC(=O)[C@H](CC(N)=O)NC(=O)[C@H](C)NC(=O)[C@H](CC(C)C)NC(=O)[C@H](CCCNC(=N)N)NC(=O)[C@H](CCC(N)=O)NC(=O)[C@@H](NC(=O)[C@H](C)NC(=O)[C@@H]1CSSC[C@H](NC(=O)[C@@H](N)CO)C(=O)N[C@@H](CC(N)=O)C(=O)N[C@@H]([C@@H](C)O)C(=O)N[C@@H](CO)C(=O)N[C@@H]([C@@H](C)O)C(=O)N1)[C@@H](C)O)C(=O)N[C@@H](CC(C)C)C(=O)N1CCC[C@H]1C(=O)N1CCC[C@H]1C(=O)N[C@H](C(=O)N[C@@H](CCCCN)C(=O)N[C@H](C(=O)NCC(=O)N[C@@H](CO)C(=O)N[C@@H](CCC(=O)O)C(=O)N[C@H](C(=O)N[C@@H](Cc1ccc(O)cc1)C(N)=O)[C@@H](C)O)C(C)C)[C@@H](C)O [Compound A57] (H-SCNTSTCATQRLANELHKSSNNFGPILPPTKVGSETY-NH2; disulfide 2-7) | 10.7 |
| CC[C@H](C)[C@H](NC(=O)[C@@H]1CCCN1C(=O)CNC(=O)[C@H](Cc1ccccc1)NC(=O)[C@H](CCC(=O)O)NC(=O)[C@H](CC(N)=O)NC(=O)[C@H](CO)NC(=O)[C@H](CO)NC(=O)[C@H](CCCCN)NC(=O)[C@@H](NC(=O)[C@H](CC(C)C)NC(=O)[C@H](Cc1ccccc1)NC(=O)[C@H](CC(N)=O)NC(=O)[C@H](C)NC(=O)[C@H](CC(C)C)NC(=O)[C@H](CCCNC(=N)N)NC(=O)[C@H](CCC(N)=O)NC(=O)[C@@H](NC(=O)[C@H](C)NC(=O)[C@@H]1CSSC[C@H](NC(=O)[C@@H](N)CO)C(=O)N[C@@H](CC(N)=O)C(=O)N[C@@H]([C@@H](C)O)C(=O)N[C@@H](CO)C(=O)N[C@@H]([C@@H](C)O)C(=O)N1)[C@@H](C)O)C(C)C)C(=O)N[C@@H](CC(C)C)C(=O)N1CCC[C@H]1C(=O)N1CCC[C@H]1C(=O)N[C@H](C(=O)N[C@@H](CCCCN)C(=O)N[C@H](C(=O)NCC(=O)N[C@@H](CO)C(=O)N[C@@H](CCC(=O)O)C(=O)N[C@H](C(=O)N[C@@H](Cc1ccc(O)cc1)C(N)=O)[C@@H](C)O)C(C)C)[C@@H](C)O [Compound A43] (H-SCNTSTCATQRLANFLVKSSNEFGPILPPTKVGSETY-NH2; disulfide 2-7) | 23.2 |
| CC[C@H](C)[C@H](NC(=O)[C@@H]1CCCN1C(=O)CNC(=O)[C@H](Cc1ccccc1)NC(=O)[C@H](CC(N)=O)NC(=O)[C@H](CC(N)=O)NC(=O)[C@H](CO)NC(=O)[C@H](CO)NC(=O)[C@H](Cc1c[nH]cn1)NC(=O)[C@@H](NC(=O)[C@H](CC(C)C)NC(=O)[C@H](Cc1ccc(O)cc1)NC(=O)[C@H](CC(N)=O)NC(=O)[C@H](C)NC(=O)[C@H](CC(C)C)NC(=O)[C@H](CCCNC(=N)N)NC(=O)[C@H](CO)NC(=O)[C@@H](NC(=O)[C@H](C)NC(=O)[C@@H]1CSSC[C@H](NC(=O)[C@@H](N)CO)C(=O)N[C@@H](CC(N)=O)C(=O)N[C@@H]([C@@H](C)O)C(=O)N[C@@H](CO)C(=O)N[C@@H]([C@@H](C)O)C(=O)N1)[C@@H](C)O)C(C)C)C(=O)N[C@@H](CC(C)C)C(=O)N1CCC[C@H]1C(=O)N1CCC[C@H]1C(=O)N[C@H](C(=O)N[C@@H](CCCCN)C(=O)N[C@H](C(=O)NCC(=O)N[C@@H](CO)C(=O)N[C@@H](CCC(=O)O)C(=O)N[C@H](C(=O)N[C@@H](Cc1ccc(O)cc1)C(N)=O)[C@@H](C)O)C(C)C)[C@@H](C)O [Compound A111] (H-SCNTSTCATSRLANYLVHSSNNFGPILPPTKVGSETY-NH2; disulfide 2-7) | 20 |
| CC[C@H](C)[C@H](NC(=O)[C@@H]1CCCN1C(=O)CNC(=O)[C@H](Cc1ccccc1)NC(=O)[C@H](CC(N)=O)NC(=O)[C@H](CC(N)=O)NC(=O)[C@H](CO)NC(=O)[C@H](CO)NC(=O)[C@H](CCCNC(=N)N)NC(=O)[C@H](Cc1c[nH]cn1)NC(=O)[C@H](CC(C)C)NC(=O)[C@H](CCC(=O)O)NC(=O)[C@H](CC(N)=O)NC(=O)[C@H](CO)NC(=O)[C@H](CC(C)C)NC(=O)[C@H](CCCNC(=N)N)NC(=O)[C@H](CO)NC(=O)[C@@H](NC(=O)[C@H](C)NC(=O)[C@@H]1CSSC[C@H](NC(=O)[C@@H](N)CO)C(=O)N[C@@H](CC(N)=O)C(=O)N[C@@H]([C@@H](C)O)C(=O)N[C@@H](CO)C(=O)N[C@@H]([C@@H](C)O)C(=O)N1)[C@@H](C)O)C(=O)N[C@@H](CC(C)C)C(=O)N1CCC[C@H]1C(=O)N1CCC[C@H]1C(=O)N[C@H](C(=O)N[C@@H](CCCCN)C(=O)N[C@H](C(=O)NCC(=O)N[C@@H](CO)C(=O)N[C@@H](CCC(=O)O)C(=O)N[C@H](C(=O)N[C@@H](Cc1ccc(O)cc1)C(N)=O)[C@@H](C)O)C(C)C)[C@@H](C)O [Compound A33] (H-SCNTSTCATSRLSNELHRSSNNFGPILPPTKVGSETY-NH2; disulfide 2-7) | 17.7 |
| CC[C@H](C)[C@H](NC(=O)[C@@H]1CCCN1C(=O)CNC(=O)[C@H](Cc1ccccc1)NC(=O)[C@H](CC(N)=O)NC(=O)[C@H](CC(N)=O)NC(=O)[C@H](CO)NC(=O)[C@H](CO)NC(=O)[C@H](CCCCN)NC(=O)[C@H](CCC(N)=O)NC(=O)[C@H](CC(C)C)NC(=O)[C@H](Cc1ccccc1)NC(=O)[C@H](CC(N)=O)NC(=O)[C@H](C)NC(=O)[C@H](CC(C)C)NC(=O)[C@H](CCCNC(=N)N)NC(=O)[C@H](CO)NC(=O)[C@@H](NC(=O)[C@H](C)NC(=O)[C@@H]1CSSC[C@H](NC(=O)[C@@H](N)CO)C(=O)N[C@@H](CC(N)=O)C(=O)N[C@@H]([C@@H](C)O)C(=O)N[C@@H](CO)C(=O)N[C@@H]([C@@H](C)O)C(=O)N1)[C@@H](C)O)C(=O)N[C@@H](CC(C)C)C(=O)N1CCC[C@H]1C(=O)N1CCC[C@H]1C(=O)N[C@H](C(=O)N[C@@H](CCCCN)C(=O)N[C@H](C(=O)NCC(=O)N[C@@H](CO)C(=O)N[C@@H](CCC(=O)O)C(=O)N[C@H](C(=O)N[C@@H](Cc1ccc(O)cc1)C(N)=O)[C@@H](C)O)C(C)C)[C@@H](C)O [Compound A62] (H-SCNTSTCATSRLANFLQKSSNNFGPILPPTKVGSETY-NH2; disulfide 2-7) | 18.8 |

Reference: US12018059B2, “Human amylin analog polypeptides and methods of use” (Intarcia Therapeutics, Inc., priority 2018, dated 2024)
